# Experimental data as given in US10100030B2 (Kissei Pharmaceutical Co., Ltd., priority 2013, dated 2018).
# pIC50: −log10 of the molar value. Read-outs that look alike come from different tables or passages of the source.
# Columns and labels:
# CYP3A4 [1] = biological target: T1, CYP3A4 (Homo sapiens (Human), UniProt P08684); details: background literature; cited from earlier work
# NK1 receptor = NK1 receptor (Meriones unguiculatus (Mongolian jird) (Gerbillus unguiculatus), UniProt Q5DUB1); test: Effect on GR73632-induced foot-tapping; assay type: in vivo; details: 0.3 mg/kg from the jugular vein, GR73632 after four hours, male gerbil
# NK1 receptor, sequence (Q5DUB1 whole entry): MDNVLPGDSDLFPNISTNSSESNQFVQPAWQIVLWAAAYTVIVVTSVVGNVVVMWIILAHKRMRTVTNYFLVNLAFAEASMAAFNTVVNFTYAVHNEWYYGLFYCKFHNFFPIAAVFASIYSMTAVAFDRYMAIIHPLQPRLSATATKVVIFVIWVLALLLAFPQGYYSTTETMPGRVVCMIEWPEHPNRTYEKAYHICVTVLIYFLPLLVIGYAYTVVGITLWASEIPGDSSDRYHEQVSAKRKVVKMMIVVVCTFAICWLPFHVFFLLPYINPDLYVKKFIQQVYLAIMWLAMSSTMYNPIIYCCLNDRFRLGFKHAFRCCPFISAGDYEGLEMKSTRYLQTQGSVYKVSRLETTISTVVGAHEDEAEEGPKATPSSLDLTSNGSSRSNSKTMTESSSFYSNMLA
# Method: (1) Effect on Foot-tapping
# (§1) A male gerbil (Japan SLC) was anesthetized with isoflurane, and 0.3 mg/kg of a test compound was administered from the jugular vein. After four hours, GR73632 (5 pmol/5 μl), which is an NK1 receptor agonist, was administered into the cerebral ventricle at the part 1 mm lateral to and 4.5 mm below the bregma in the head, under anesthesia with isoflurane. After the administration, the gerbil was moved to an observation cage, and the foot-tapping period during five minutes after the recovery of the righting reflex was measured. The foot-tapping inhibition rate (%) of each test compound was calculated by the following equation. Foot-tapping inhibition rate (%)={1−(Foot-tapping period when test compound was administered)/(Foot-tapping period when solvent was administered)}×100 (2) Measurement of Drug Concentrations
# (§2) In the table, Ex. No. means the Example number. Inhibition (%) is the foot-tapping inhibition rate, and Conc. (nM) is the drug concentration in the brain.
# human NK1 receptor [2] = biological target: T2, human NK1 receptor (Homo sapiens (Human), UniProt P25103); test: Inhibitory effect on human NK1 receptor (substance P-induced increase in intracellular calcium concentration); assay type: cell-based; details: HEK-293T; substance P 1 μM, compound 0.1 μM; human NK1 receptor-expressing 293T cells; read-out: SPRR (Substance P-Response Remaining)
# T2 sequence (P25103 whole entry): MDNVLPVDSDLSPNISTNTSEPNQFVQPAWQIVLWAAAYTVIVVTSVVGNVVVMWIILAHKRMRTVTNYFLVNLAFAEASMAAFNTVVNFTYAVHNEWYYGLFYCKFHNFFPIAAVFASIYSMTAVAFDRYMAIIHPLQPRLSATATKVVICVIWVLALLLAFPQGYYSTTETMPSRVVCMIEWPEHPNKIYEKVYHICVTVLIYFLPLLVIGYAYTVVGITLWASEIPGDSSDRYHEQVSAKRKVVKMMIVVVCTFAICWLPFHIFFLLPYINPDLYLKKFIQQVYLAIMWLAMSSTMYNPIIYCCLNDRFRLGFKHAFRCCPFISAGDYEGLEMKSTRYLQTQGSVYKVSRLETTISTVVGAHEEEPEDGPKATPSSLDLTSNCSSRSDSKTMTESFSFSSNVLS
# Method: Inhibitory Effect on Human NK1 Receptor
# (1) Preparation of Human NK1 Receptor-expressing Cells
# Human NK1 receptor-expressing cells were prepared by the same methods as those described in 2-3 and 2-4 of Test Example 1.
# (2) Study on Inhibitory Effect on Increase in Intracellular Calcium Concentration
# The human NK1 receptor-expressing cells were washed with 300 μL/well of a washing solution (20 mM HEPES/Hank's Balanced Salt Solution (HBSS) […]). A fluorescent calcium indicator (Fluo-4 Direct Calcium Assay Kit, Life Technologies, containing 0.42 mM probenecid and 0.1% bovine serum albumin, prepared according to the protocol of the product) was added to the wells at 150 μL/well, and the plate was incubated at 37° C. for 30 minutes in an incubator. Then, DMSO solutions of a test compound, which were prepared at an 80-time higher concentration using 100% dimethyl sulfoxide (DMSO), were added to the wells at 2.5 μL/well (final concentrations of 0.1, 1 and 10 μM), and the solutions were mixed. Then, the plate was further incubated at 37° C. for 30 minutes in an incubator. After 30 minutes, the intracellular calcium concentrations were measured immediately.
# The intracellular calcium concentrations were each measured as a fluorescent signal using FDSS (registered trademark) 7000 (Hamamatsu Photonics). A substance P (Peptide Institute, Inc.) solution which was prepared at 0.4 μM or 4 μM using an assay buffer (20 mM HEPES/Hank's Balanced Salt Solution (HBSS) pH 7.3, containing 0.1% bovine serum albumin) was added automatically to each well at 50 μL/well (final concentration of 0.1 or 1 μM) 10 seconds after starting reading, and the fluorescent signal was measured up to 120 seconds.
# The intracellular calcium concentration (%) of the cells to which a test compound was added was calculated by the equation below, where the fluorescent signal of the group to which the vehicle (DMSO) was added was regarded as 100%, and the fluorescent signal before the addition of substance P was regarded as 0%. Intracellular calcium concentration(%)=(Fluorescent signal of test compound addition group)/(Fluorescent signal of vehicle addition group)×100
# The intracellular calcium concentration (%) calculated was regarded as the remaining agonist activity of substance P (Substance P-Response Remaining: SPRR). In the table, Ex. No. means the Example number. SPRR (%) is the value obtained when the concentration of substance P was 1 μM and the concentration of the compound was 0.1 μM.
# CYP3A4 [3] = biological target: T1, CYP3A4; test: Inhibitory effect on CYP3A4 (Luciferin-IPA)
# Method: Enzyme reaction was performed by incubating in a potassium phosphate buffer solution (pH 7.4) containing 1 nM to 20 μM test compound, 3.2 mM magnesium chloride, 0.2 pmol human CYP3A4 (BD Biosciences), 0.5 mM reduced nicotinamide adenine dinucleotide phosphate (NADPH) and 3 μM Luciferin-IPA (Promega) at 37° C. for 10 minutes. The volume of the reaction solution was 50 μL/well. The 30-minute pre-incubation group was incubated at 37° C. for 30 minutes before adding the substrate, the Luciferin-IPA solution (12.5 μL/well). At the end of the enzyme reaction, 50 μL/well of a Luciferin detection reagent (Promega) was added to the wells, and the plate was left at room temperature for 20 minutes. Then, the emission intensities were measured with Infinite M1000 (TECAN). The enzyme activities (%) relative to the value of the group to which the test compound was not added were calculated.
# human NK1 receptor [4] = biological target: T2, human NK1 receptor; test: Affinity for human NK1 receptor (125I-substance P receptor binding test); details: membrane fraction of human NK1 receptor-expressing 293T cells; read-out: IC50 (concentration required for 50% inhibition of 125I-substance P binding)
# Method: Affinity for Human NK1 Receptor
# (3) Measurement of Binding Affinity to Human NK1 Receptor
# (3-1) Preparation of Membrane Fraction from Human NK1 Receptor-expressing Cells
# Human NK1 receptor-expressing cells were prepared in a 175 cm^2 culture flask (Nippon Becton Dickinson). The formation of a complex of the human NK1 receptor expression plasmid and Lipofectamine 2000 was performed by calculating the culture area ratio and increasing the scale of the method described in the above 2-4 by the ratio. The human NK1 receptor-expressing cells were collected in a buffer solution for the membrane fraction preparation (50 mM Tris (Wako Pure Chemical). 120 mM sodium chloride (Wako Pure Chemical Industries), 5 mM potassium chloride (Wako Pure Chemical Industries), 1 mM ethylenediaminetetraacetic acid (Sigma), 0.002 mg/mL chymostatin (Peptide Institute), 0.04 mg/ bacitracin (Wako Pure Chemical Industries), 0.005 mg/mL phosphoramidon (Peptide Institute) and 0.5 mM phenylmethylsulfonyl fluoride (Wako Pure Chemical Industries), pH7.4) and centrifuged at 1,880 g for 10 minutes, and the cell sediment was suspended in the buffer solution for the membrane fraction preparation. After freezing and thawing the cells once, the cells were homogenized using a Dounce-type homogenizer (cooled on ice, 1000 rpm, 20 times). The homogenized cell suspension was centrifuged at 20,000 rpm for 10 minutes, and the supernatant was removed to obtain cell sediment. The cell sediment was suspended again in the buffer solution for the membrane fraction preparation and homogenized using a Dounce-type homogenizer (cooled on ice, 1000 rpm, 30 times). The cell suspension was centrifuged at 20,000 rpm for 10 minutes, and the supernatant was removed to obtain cell sediment. The same homogenization and centrifugation were repeated again, and final cell sediment was obtained. The final cell sediment was suspended in a buffer solution for the receptor binding test (50 mM Tris (Wako Pure Chemical Industries), 3 mM manganese chloride (Wako Pure Chemical Industries), 0.002 mg/mL chymostatin (Peptide Institute), 0.04 mg/bacitracin (Wako Pure Chemical Industries) and 0.02% bovine serum albumin (Sigma), pH 7.4), and the protein concentration was measured using BCA Protein Assay Kit (Pierce).
# (3-2) Receptor Binding Test
# The buffer solution for the receptor binding test was dispensed to the wells of a 96-well assay plate (Greiner) at 22.5 μL/well. DMSO solutions of a test compound, which were prepared at an 80-time higher concentration using 100% dimethyl sulfoxide (DMSO), were added to the wells at 2.5 μL/well (final concentrations of 1 nM to 100 nM), and the solutions were mixed. As a radiolabeled ligand, ^125I-substance P (Substance P, [^125I]Tyr^8-, PerkinElmer) was used. ^125I-substance P was diluted with the buffer solution for the receptor binding test to a concentration resulting in […] and added to the 96-well assay plate, and the solutions were mixed. The membrane fraction prepared from the human NK1 receptor-expressing cells was diluted with the buffer solution for the receptor binding test to a concentration resulting in 8 to 10 μg/well, suspended until the suspension became in such a homogenous state that the suspension could flow through as 27G injection needle smoothly and then added to the 96-well assay plate at 150 μL/well. Then, the plate was incubated at room temperature for 60 minutes while shaking the plate. The reaction solutions were suction-filtered. through a multiscreen 96-well filter plate (Millipore) which had been pre-treated with 0.3% polyethyleneimine, and the reaction was terminated by washing with a washing solution (50 mM Tris and 0.02% bovine serum albumin, pH 7.4) four times. The bottom of the microplate was dried at 60° C., and then 100 μL/well of MicroScint 20 (PerkinElmer) was dispensed to the wells. The top of the plate was sealed with TopSeal A (PerkinElmer), and the plate was shaken for 5 to 10 minutes. […]
# [5] = Measurement of drug concentrations in the brain after foot-tapping test; assay type: in vivo; details: male; 0.3 mg/kg iv, after foot-tapping was finished, gerbil brain; read-out: Conc. (drug concentration in the brain)
# Method: as §1
# After foot-tapping was finished, laparotomy was performed immediately under anesthesia with ether, and a blood sample was taken from the abdominal vena cava. At the same time, the brain was extracted. Through a quantitative analysis using liquid chromatography-mass spectrometry (LC/MS), the concentrations of the test compound in the plasma and the brain were measured.
# as §2
# [6] = read-out: IC50 (CYP3A4 inhibition), 30-minute pre-incubation group
# T1 sequence (P08684 whole entry): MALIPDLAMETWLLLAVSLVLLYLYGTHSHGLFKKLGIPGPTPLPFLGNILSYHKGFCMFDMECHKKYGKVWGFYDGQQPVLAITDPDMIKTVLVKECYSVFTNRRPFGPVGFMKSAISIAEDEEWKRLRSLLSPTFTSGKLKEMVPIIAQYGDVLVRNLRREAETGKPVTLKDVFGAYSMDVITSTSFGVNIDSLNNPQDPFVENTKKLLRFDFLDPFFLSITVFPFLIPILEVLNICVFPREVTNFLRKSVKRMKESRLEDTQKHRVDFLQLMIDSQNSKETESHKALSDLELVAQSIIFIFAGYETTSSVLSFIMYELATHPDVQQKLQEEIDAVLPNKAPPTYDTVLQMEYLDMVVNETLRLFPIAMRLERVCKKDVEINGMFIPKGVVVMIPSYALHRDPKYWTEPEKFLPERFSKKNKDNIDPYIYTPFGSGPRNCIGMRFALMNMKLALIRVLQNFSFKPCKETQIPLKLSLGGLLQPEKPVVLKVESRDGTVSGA
Structure (SMILES),inhibitory effect on CYP3A4 (reported) (CYP3A4 [1]),Inhibition (foot-tapping inhibition rate) (NK1 receptor),remaining activity at 0.1 µM (human NK1 receptor [2]),pIC50 (CYP3A4 [3]; [6]),pIC50 (human NK1 receptor [4]),concentration at 4 h [5],pIC50 (CYP3A4 [3])
"C[C@@H](O[C@H]1OCCN(Cc2n[nH]c(=O)[nH]2)[C@H]1c1ccc(F)cc1)c1cc(C(F)(F)F)cc(C(F)(F)F)c1 [Aprepitant, aprepitant]",dose-dependent inhibitory effect on CYP3A4,,,,,,
"Cc1ccccc1-c1cc(N2CCC(CC(=O)O)CC2)ncc1N(C)C(=O)C(C)(C)c1cc(C(F)(F)F)cc(C(F)(F)F)c1 [Example 2, (5′-{[2-(3,5-Bistrifluoromethylphenyl)-2-methylpropionyl]methylamino}-4′-ortho-tolyl-3,4,5,6-tetrahydro-2H-[1,2]bipyridinyl-4-yl)acetic acid]",,81%,54%,4.89,8.60,167 nM,
Cc1cc(F)ccc1-c1cc(N2CCC(CC(=O)O)C(C)(C)C2)ncc1N(C)C(=O)C(C)(C)c1cc(C(F)(F)F)cc(C(F)(F)F)c1 (centres unmarked) [Example 3],,100%,13%,5.43,8.34,262 nM,
Cc1cc(F)ccc1-c1cc(N2CCC(CC(=O)O)C(C)C2)ncc1N(C)C(=O)C(C)(C)c1cc(C(F)(F)F)cc(C(F)(F)F)c1 (centres unmarked) [Example 4],,100%,16%,5.32,8.45,179 nM,
"COC1CN(c2cc(-c3ccc(F)cc3C)c(N(C)C(=O)C(C)(C)c3cc(C(F)(F)F)cc(C(F)(F)F)c3)cn2)CCC1CC(=O)O (centres unmarked) [Example 5, [5′-{[2-(3,5-Bistrifluoromethylphenyl)-2-methylpropionyl]methylamino}-4′-(4-fluoro-2-methylphenyl)-3-methoxyl-3,4,5,6-tetrahydro-2H-[1,2′]bipyridinyl-4-yl]acetic acid]",,97%,49%,5.26,8.48,111 nM,
Cc1cc(F)ccc1-c1cc(N2CCC(CC(=O)O)CC2)nc(C#N)c1N(C)C(=O)C(C)(C)c1cc(C(F)(F)F)cc(C(F)(F)F)c1 [Example 6],,100%,73%,5.59,8.59,243 nM,
"Cc1cc(F)ccc1-c1cc(N2CCC(C(C)(C)C(=O)O)CC2)ncc1N(C)C(=O)C(C)(C)c1cc(C(F)(F)F)cc(C(F)(F)F)c1 [Example 7, [5′-{[2-(3,5-Bistrifluoromethylphenyl)-2-methylpropionyl]methylamino}-4′-(4-fluoro-2-methylphenyl)-3,4,5,6-tetrahydro-2H-[1,2′]bipyridinyl-4-yl]-2-methylpropionic acid]",,,6%,5.39,8.33,,
Cc1cc(F)ccc1-c1cc(N2CCC(C)(CC(=O)O)CC2)ncc1N(C)C(=O)C(C)(C)c1cc(C(F)(F)F)cc(C(F)(F)F)c1 [Example 9],,,6%,5.20,8.55,,
"Cc1cc(F)ccc1-c1cc(N2CCC(C)(CC(=O)O)CC2)nc(C#N)c1N(C)C(=O)C(C)(C)c1cc(C(F)(F)F)cc(C(F)(F)F)c1 [Example 10, [5′-{[2-(3,5-Bistrifluoromethylphenyl)-2-methylpropionyl]methylamino}-6′-cyano-4′-(4-fluoro-2-methylphenyl)-4-methyl-3,4,5,6-tetrahydro-2H-[1,2′]bipyridinyl-4-yl]acetic acid]",,100%,,5.42,8.48,219 nM,
"Cc1cc(F)ccc1-c1cc(N2CCC([C@H](C)C(=O)O)CC2)ncc1N(C)C(=O)C(C)(C)c1cc(C(F)(F)F)cc(C(F)(F)F)c1 [Example 11, (S)-2-[5′-{[2-(3,5-Bistrifluoromethylphenyl)-2-methylpropionyl]methylamino}-4′-(4-fluoro-2-methylphenyl)-3,4,5,6-tetrahydro-2H-[1,2′]bipyridinyl-4-yl]propionic acid]",,,7%,,8.88,,5.31
CC(=O)N1CCN([C@H]2CCN(C(=O)N(C)[C@H](C)c3cc(C(F)(F)F)cc(C(F)(F)F)c3)[C@@H](c3ccc(F)cc3C)C2)CC1 [casopitant],inhibitory effect on CYP3A4,,,,,,
Cc1ccccc1-c1cc(N2CCN(C)CC2)ncc1N(C)C(=O)C(C)(C)c1cc(C(F)(F)F)cc(C(F)(F)F)c1 [netupitant],inhibitory effect on CYP3A4,,,,,,
